Experimental data from ChEMBL document CHEMBL1201862, “PubChem BioAssay data set” (2004).
Activity calls are given as the source filed them.

Key:
[1] = NIH3T3 cell viability loss – ATP luminescence, mouse fibroblasts, counter-screen, dose response (AID 2010); format: functional, cell-based;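 note: cells exposed to compound for about 90 hours before reading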
[2] = biological target: T1, DNA repair protein RAD52 homolog (Homo sapiens, UniProt P43351); format: functional, biochemical
T1 sequence (P43351 whole entry): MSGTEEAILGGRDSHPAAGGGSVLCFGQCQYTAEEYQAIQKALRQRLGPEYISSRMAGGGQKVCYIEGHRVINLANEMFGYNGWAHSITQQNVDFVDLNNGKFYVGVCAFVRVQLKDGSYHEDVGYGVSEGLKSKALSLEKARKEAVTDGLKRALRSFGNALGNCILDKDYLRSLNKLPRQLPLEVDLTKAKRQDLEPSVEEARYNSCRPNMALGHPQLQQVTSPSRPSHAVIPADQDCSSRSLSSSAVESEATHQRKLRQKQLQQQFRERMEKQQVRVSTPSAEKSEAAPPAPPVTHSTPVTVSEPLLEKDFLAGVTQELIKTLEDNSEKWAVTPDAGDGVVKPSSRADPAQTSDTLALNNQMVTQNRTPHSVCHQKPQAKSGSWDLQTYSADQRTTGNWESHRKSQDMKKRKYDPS

[3] = cells; format: functional, cell-based
[4] = cells; format: functional, cell-based; remark: listed apart in the source
[5] = biological target: T2, Short transient receptor potential channel 4 (Mus musculus, UniProt Q9QUQ5); assay: block of DAMGO-driven TRPC4 calcium entry – cell-based, HEK293 TRPC4/mu-opioid, Fluo-4 calcium, dose response (AID 434942); format: functional;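 note: potency of inhibitors blocking the TRPC4 calcium response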
T2 sequence (Q9QUQ5 whole entry): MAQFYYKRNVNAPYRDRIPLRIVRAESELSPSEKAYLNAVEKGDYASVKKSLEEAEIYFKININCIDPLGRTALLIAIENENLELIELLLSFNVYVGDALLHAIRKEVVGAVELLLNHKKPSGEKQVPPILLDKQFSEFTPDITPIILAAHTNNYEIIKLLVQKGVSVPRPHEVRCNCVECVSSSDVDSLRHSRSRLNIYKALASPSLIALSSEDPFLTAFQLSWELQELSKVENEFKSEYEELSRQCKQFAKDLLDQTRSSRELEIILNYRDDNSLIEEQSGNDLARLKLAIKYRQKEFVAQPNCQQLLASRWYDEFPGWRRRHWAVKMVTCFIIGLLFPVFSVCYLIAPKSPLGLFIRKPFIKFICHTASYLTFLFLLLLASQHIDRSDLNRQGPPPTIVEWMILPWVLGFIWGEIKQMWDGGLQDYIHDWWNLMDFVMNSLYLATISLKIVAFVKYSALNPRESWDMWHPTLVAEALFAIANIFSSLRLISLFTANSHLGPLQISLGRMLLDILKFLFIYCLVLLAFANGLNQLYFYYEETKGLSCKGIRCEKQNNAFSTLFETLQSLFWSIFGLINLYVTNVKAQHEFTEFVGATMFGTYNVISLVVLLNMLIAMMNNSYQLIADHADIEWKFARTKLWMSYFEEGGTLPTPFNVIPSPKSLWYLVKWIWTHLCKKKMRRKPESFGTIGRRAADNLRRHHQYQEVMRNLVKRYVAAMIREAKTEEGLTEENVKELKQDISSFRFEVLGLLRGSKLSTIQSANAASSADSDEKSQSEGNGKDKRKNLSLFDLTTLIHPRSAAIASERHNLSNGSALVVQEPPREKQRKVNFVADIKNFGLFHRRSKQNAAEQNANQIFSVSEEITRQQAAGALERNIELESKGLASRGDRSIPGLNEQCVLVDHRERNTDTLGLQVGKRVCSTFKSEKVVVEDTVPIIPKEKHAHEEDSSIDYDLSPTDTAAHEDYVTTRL

[6] = Trypanosoma cruzi growth suppression in host cells – NIH3T3 host cells, beta-gal luminescence, confirmation (AID 2044); format: functional, cell-based;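 note: intracellular parasites grown in NIH/3T3 mouse fibroblasts as host cells; luminescent beta-galactosidase reporter signal from transgenic T. cruzi replicating inside host cells; inhibitors lower the luminescence signal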
[7] = system: INS1; assay: INS-1E survival protection against cytokine death – cell-based, luminescence, retest, dose response (AID 449756); format: functional; details: Rattus norvegicus, INS1;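 note: cell death triggered by IL-1 beta plus TNF-alpha plus IFN-gamma mixture; protective hits raise ATP signal compared with cytokine alone wells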
[8] = Counterscreen for activators of the function of SWI/SNF related, matrix associated, actin dependent regulator of chromatin, subfamily a, member 2 (SMARCA2, BRM): Luminescence-based cell-based high throughput dose response assay to identify non-selective compounds using the VP16 reporter assay.; format: functional
[9] = acridine orange displacement from DNA – biochemical, fluorescence polarization, cherry-pick, artefact control for RAD54 inhibitor project, dose response (AID 651673); format: functional
[10] = system: HEK293; assay: cells; details: Homo sapiens
[11] = system: HEK293; assay: cells; details: Homo sapiens; remark: listed apart in the source
[12] = biological target: T3, DNA repair and recombination protein RAD54-like (Homo sapiens, UniProt Q92698); assay: RAD54 Holliday junction migration blockers – biochemical, fluorescence, cherry-picked samples, dose series, confirmation (AID 651657); format: functional
T3 sequence (Q92698 whole entry): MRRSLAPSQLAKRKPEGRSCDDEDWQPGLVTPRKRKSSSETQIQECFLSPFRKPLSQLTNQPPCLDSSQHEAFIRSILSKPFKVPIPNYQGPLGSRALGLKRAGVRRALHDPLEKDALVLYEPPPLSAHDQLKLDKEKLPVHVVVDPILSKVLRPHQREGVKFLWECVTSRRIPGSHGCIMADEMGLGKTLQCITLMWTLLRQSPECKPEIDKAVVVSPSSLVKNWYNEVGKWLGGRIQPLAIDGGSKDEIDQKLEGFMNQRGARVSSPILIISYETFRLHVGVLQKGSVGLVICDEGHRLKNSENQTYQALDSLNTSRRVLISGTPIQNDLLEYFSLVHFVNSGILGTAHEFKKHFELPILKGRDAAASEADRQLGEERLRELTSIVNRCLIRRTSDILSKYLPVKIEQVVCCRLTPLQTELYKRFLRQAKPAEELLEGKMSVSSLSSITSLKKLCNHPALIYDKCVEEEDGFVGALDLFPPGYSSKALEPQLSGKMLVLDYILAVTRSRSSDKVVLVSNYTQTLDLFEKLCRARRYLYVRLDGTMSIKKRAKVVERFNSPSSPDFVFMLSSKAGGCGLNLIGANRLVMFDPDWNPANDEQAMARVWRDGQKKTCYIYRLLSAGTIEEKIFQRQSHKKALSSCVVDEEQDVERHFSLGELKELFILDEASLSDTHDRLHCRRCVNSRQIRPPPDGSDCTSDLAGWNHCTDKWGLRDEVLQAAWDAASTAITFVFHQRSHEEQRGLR

[13] = biological target: SWI/SNF-related matrix-associated actin-dependent regulator of chromatin subfamily A member 2 (Homo sapiens, UniProt P51531); assay: Luminescence-based cell-based high throughput dose response assay to identify activators of the function of SWI/SNF related, matrix associated, actin dependent regulator of chromatin, subfamily a, member 2 (SMARCA2, BRM).; format: functional
[14] = biological target: T4, Caspase-6 (Homo sapiens, UniProt P55212); assay: inhibition of CASP6 peptide cleavage – biochemical, VEID-R110 fluorescence, cherry-pick, dose response (AID 720632)
T4 sequence (P55212 whole entry): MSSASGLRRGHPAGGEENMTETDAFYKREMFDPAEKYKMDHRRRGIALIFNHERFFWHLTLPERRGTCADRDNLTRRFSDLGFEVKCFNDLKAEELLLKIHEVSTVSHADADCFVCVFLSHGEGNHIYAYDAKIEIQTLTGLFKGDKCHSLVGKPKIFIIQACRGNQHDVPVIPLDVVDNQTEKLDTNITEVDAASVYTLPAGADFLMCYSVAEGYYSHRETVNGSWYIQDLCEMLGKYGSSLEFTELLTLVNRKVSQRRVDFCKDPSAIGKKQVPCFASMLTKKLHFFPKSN

[15] = biological target: Caspase-7 (Homo sapiens, UniProt P55210); assay: caspase-7 enzyme inhibition, selectivity check – biochemical, DEVD-R110 fluorescence, cherry-pick, selectivity assay for caspase-6 inhibitor project, dose response (AID 743295); format: functional
[16] = Late stage assay provider results from the probe development effort to identify selective inhibitors of heat shock protein 90 (HSP90): Absorbance-based cell proliferation assay in SKBR3 cells.; format: functional; details: SK-BR-3
[17] = Late stage assay provider results from the probe development effort to identify selective inhibitors of heat shock protein 90 (HSP90): Absorbance-based cell proliferation assay in MCF7 cells.; format: functional
[18] = cells
[19] = biological target: Major prion protein (Homo sapiens, UniProt P04156); format: functional, cell-based
[20] = biological target: Galanin receptor type 3 (Homo sapiens, UniProt O60755); assay: Fluorescence-based cell-based primary high throughput dose response assay to identify antagonists of the Galanin Receptor 3 (GalR3).; format: functional
[21] = cells; format: functional, cell-based; details: HEK-CNG
[22] = biological target: T5, Nuclear receptor subfamily 0 group B member 1 (Homo sapiens, UniProt P51843); format: functional, cell-based;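 note: HEK293T cells transfected with SF-1 and DAX-1 plus StAR promoter luciferase reporter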
T5 sequence (P51843 whole entry): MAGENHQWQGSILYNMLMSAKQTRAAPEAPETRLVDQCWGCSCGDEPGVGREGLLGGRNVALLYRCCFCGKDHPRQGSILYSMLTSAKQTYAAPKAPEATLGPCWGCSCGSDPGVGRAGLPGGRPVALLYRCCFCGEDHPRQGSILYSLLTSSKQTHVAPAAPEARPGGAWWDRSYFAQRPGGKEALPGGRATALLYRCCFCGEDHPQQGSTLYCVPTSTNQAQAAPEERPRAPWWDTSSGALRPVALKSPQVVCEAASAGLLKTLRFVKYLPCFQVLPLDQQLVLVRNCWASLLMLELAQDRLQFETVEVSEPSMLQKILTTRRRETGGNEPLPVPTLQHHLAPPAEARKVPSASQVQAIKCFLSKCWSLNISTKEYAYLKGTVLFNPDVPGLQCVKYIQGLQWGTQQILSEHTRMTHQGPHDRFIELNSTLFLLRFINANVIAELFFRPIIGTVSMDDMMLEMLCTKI

[23] = cells; format: functional, cell-based; remark: listed apart in the source
[24] = alpha-synuclein stem-loop luciferase translation blockers – H4 neuroglioma cells, luminescence, confirmation (AID 1988); format: functional, cell-based
[25] = Luminescence Cell-Based Dose Response HTS to Identify Inhibitors of 5'UTR Stem-Loop Driven Prion Protein mRNA Translation in H4 Neuroglioblastoma Cells. [Related pubchem assays: 1827 (Project Summary), 1813 (Primary HTS)]; format: functional
[26] = biological target: Luciferin 4-monooxygenase (Photinus pyralis, UniProt P08659); assay: inhibition of purified Photinus pyralis luciferase – biochemical, luminescence, dose response (AID 1891)
[27] = Luminescence Cell-Based Dose Confirmation HTS to Identify Inhibitors of Platelet Dense Granule Release. [Related pubchem assays: 1663 (Primary HTS), 1678 (Summary of Project)]; format: functional
[28] = biological target: T6, Protein skinhead-1 (Caenorhabditis elegans, UniProt P34707); format: functional
T6 sequence (P34707 whole entry): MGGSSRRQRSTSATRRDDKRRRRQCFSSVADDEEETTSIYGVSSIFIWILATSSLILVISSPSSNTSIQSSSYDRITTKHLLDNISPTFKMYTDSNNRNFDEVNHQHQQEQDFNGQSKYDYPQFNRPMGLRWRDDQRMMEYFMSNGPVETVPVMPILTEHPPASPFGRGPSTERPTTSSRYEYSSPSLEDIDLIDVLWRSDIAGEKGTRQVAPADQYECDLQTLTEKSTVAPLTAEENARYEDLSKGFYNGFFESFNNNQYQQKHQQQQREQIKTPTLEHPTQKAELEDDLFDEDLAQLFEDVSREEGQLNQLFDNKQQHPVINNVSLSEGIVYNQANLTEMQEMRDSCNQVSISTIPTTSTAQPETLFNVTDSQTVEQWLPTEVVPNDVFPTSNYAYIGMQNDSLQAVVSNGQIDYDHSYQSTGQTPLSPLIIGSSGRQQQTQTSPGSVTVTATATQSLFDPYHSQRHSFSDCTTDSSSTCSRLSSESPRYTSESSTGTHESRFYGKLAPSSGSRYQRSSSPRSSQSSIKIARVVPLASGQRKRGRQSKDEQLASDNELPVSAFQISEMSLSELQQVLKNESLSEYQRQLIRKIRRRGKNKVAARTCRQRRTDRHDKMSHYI

In the case of `OCCCNc1c2ccccc2nc2ccccc12`, the EC50 [1] is reported as 7.34 µM (active), the AC50 [2] is reported as 3.08 µM (active) and the EC50 [3] is reported as > 350 µM (not active). The EC50 [4] was > 350 µM (not active), the EC50 [5] was 6.68 µM (active) and the EC50 [6] was 266 nM (active). For the same compound, the AC50 [7] was 2.44 µM (active), the EC50 [8] was > 91.1 µM (inactive) and the AC50 [9] was 55.2 µM (active). The EC50 [10] was > 59.7 µM (inactive), the EC50 [11] was > 2.21 µM (active) and the AC50 [12] was 3.37 µM (active). For the same compound, the EC50 [13] was > 3.38 µM (active).

For `O=C(Nc1ccc(S(=O)(=O)Nc2cnc3ccccc3n2)cc1)c1ccc(Cl)c([N+](=O)[O-])c1`, the AC50 [14] was 905 nM (active) and the AC50 [15] was > 70 µM (inactive).

For `N#Cc1cc2cc(OCCc3ccc(F)cc3)ccc2oc1=O`, the IC50 [16] was 16.9 µM (inactive) and the IC50 [17] was 96.5 µM (inactive).

In the case of `CC(=O)c1ccc(CCCCCCCCCC(=O)O)s1`, the IC50 [18] is reported as > 138 µM (inactive) and the IC50 [19] is reported as 5.71 µM (active).

For `CCOC(=O)c1c(O)nc(C)c(Cl)c1O`, the IC50 [20] was > 29.9 µM (inactive) and the EC50 [21] was > 29.9 µM (inactive).

For `O=C(/C=C\Nc1ccccc1Br)c1ccc2c(c1)OCO2`, the IC50 [22] was > 92.6 nM (active) and the IC50 [23] was > 67.5 µM (inactive).

For `COC(=O)CSc1nc(-c2ccccc2)nc2ccccc12`, the IC50 [18] was > 138 µM (inactive) and the IC50 [19] was 1.31 µM (active).

With `Cc1ccc(N/C=C/C(=O)c2cccs2)cc1` the EC50 [24] was 9.77 µM (active), the IC50 [22] was > 278 nM (active) and the EC50 [25] was 9.4 µM (active). The IC50 [23] was > 67.5 µM (inactive), the EC50 [26] was 1.17 µM (active) and the EC50 [27] was 6.06 µM (active). For the same compound, the IC50 [28] was 39 µM (active).

For `O=C(NCc1ccco1)c1coc(=O)c(Br)c1`, the IC50 [16] was 27.8 µM (inactive) and the IC50 [17] was 4.8 µM (active).
